Laboratory results from patent publication US9656988B2 (Pharmacyclics LLC, priority 2013, dated 2017).

Target: BTK (Homo sapiens (Human), UniProt Q06187)
Experiment: Btk in vitro inhibitory activity (one of Method A TR-FRET, Method B electrophoretic mobility shift, Method C radiometric filter binding)
Format: biochemical
Conditions: determined using one of the methods of Example 355a, 355b and 355c; read-out: BTK IC50

Chain of BTK (Q06187 whole entry): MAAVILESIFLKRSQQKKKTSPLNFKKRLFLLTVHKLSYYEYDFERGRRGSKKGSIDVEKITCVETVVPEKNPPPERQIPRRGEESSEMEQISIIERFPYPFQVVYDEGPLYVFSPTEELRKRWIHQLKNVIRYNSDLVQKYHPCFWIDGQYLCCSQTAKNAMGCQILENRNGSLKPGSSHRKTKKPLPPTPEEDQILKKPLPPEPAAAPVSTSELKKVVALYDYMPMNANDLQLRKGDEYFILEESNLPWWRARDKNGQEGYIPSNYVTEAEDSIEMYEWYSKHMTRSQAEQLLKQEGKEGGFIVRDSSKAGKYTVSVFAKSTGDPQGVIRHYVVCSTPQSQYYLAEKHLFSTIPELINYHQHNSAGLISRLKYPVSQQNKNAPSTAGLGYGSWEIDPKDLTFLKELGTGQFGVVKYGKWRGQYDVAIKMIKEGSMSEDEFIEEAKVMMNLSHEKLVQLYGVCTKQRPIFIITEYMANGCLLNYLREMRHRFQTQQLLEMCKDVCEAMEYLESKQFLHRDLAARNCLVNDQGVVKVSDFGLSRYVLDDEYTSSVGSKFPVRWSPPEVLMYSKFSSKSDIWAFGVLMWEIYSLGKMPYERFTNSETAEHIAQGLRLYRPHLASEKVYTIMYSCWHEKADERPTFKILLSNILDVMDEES

Row | IC50 [µM] | Compound
1 | 0.01 to 0.1 | COCCOc1ccc(Nc2nc(N3CCC[C@@H](NC(=O)N[C@@H](C)c4ccccc4)C3)cnc2C(N)=O)cc1 [Example 346, 3-(4-(2-methoxyethoxy)phenylamino)-5-((R)-3-(3-((S)-1-phenylethyl)ureido)piperidin-1-yl)pyrazine-2-carboxamide]
2 | 0.01 to 0.1 | COCCOc1ccc(Nc2nc(N3CCC[C@@H](NC(=O)N[C@H](C)c4ccccc4)C3)cnc2C(N)=O)cc1 [Example 347, 3-(4-(2-methoxyethoxy)phenylamino)-5-((R)-3-(3-((R)-1-phenylethyl)ureido)piperidin-1-yl)pyrazine-2-carboxamide]
3 | 0.01 to 0.1 | Cc1cc(Nc2nc(N[C@@H]3CCCCN(C(=O)N(C)C)C3)cnc2C(N)=O)sn1 [Example 348, (R)-3-(5-carbamoyl-6-(3-methylisothiazol-5-ylamino)pyrazin-2-ylamino)-N,N-dimethylazepane-1-carboxamide]
4 | 1 to 10 | CN(C(=O)N[C@@H]1CCCN(c2cnc(C(N)=O)c(NC3CC3)n2)C1)c1ccccc1 [Example 350, (R)-3-(cyclopropylamino)-5-(3-(3-methyl-3-phenylureido)piperidin-1-yl)pyrazine-2-carboxamide]
5 | 1 to 10 | CN(C(=O)N[C@@H]1CCCN(c2cnc(C(N)=O)c(NC3CCCC3)n2)C1)c1ccccc1 [Example 351, (R)-3-(cyclopentylamino)-5-(3-(3-methyl-3-phenylureido)piperidin-1-yl)pyrazine-2-carboxamide]
6 | 1 to 10 | CN(C(=O)N[C@@H]1CCCN(c2cnc(C(N)=O)c(NC3CC3)n2)C1)c1cc(Cl)cc(C(F)(F)F)c1 [Example 352, (R)-5-(3-(3-(3-chloro-5-(trifluoromethyl)phenyl)-3-methylureido)piperidin-1-yl)-3-(cyclopropylamino)pyrazine-2-carboxamide]
7 | 1 to 10 | CN(C(=O)N[C@@H]1CCCN(c2cnc(C(N)=O)c(NC3CCOCC3)n2)C1)c1cc(Cl)cc(C(F)(F)F)c1 [Example 353, (R)-5-(3-(3-(3-chloro-5-(trifluoromethyl)phenyl)-3-methylureido)piperidin-1-yl)-3-(tetrahydro-2H-pyran-4-ylamino)pyrazine-2-carboxamide]
8 | 1 to 10 | NC(=O)c1ncc(N2CCC[C@@H](NC(=O)NC3CCOCC3)C2)nc1NC1CCOCC1 [Example 354, (R)-5-(3-(3-(tetrahydro-2H-pyran-4-yl)ureido)piperidin-1-yl)-3-(tetrahydro-2H-pyran-4-ylamino)pyrazine-2-carboxamide]
